Values quoted from earlier work as cited in publication PMC8760190 (Molecular Imaging and Biology, 2021).

Conditions: 90 min after injection, rats and mice

SMILES	Non-metabolized parent compound as share of remaining radioactivity in the brain
CCN(CC)C(=O)Cc1c(-c2ccc(OCC[18F])cc2)nn2c(C)cc(C)nc12 [[^18F]DPA-714]	about 50%
CCN(CC)C(=O)Cc1c(-c2ccc([18F])cc2)nn2c(C)cc(C)nc12 [[^18F]F-DPA]	more than 90%
